# In US7501406B2, “Fluoro substituted 2-oxo-azepan derivatives” (Hoffmann-La Roche Inc., priority 2005, dated 2009):
# Molecular target: γ-secretase (Homo sapiens, UniProt P49768)
# Assay: in vitro assay of γ-secretase activity (HEK293 membrane fraction, recombinant APP substrate, Abeta ELISA)
# Format: biochemical
# Details: γ-secretase inhibition; HEK293 membrane fraction as source of γ-secretase, recombinant C-terminal 100 amino acids of human APP as substrate, Abeta detected by ELISA
# Source text: Description of γ-secretase Assay
# The activity of test compounds can be evaluated in assays which measure the proteolytic cleavage of suitable substrates by γ-secretase activity. These can be cellular assays where e.g., a substrate of γ-secretase is fused in its cytoplasmic domain to a transcription factor. Cells are transfected with this fusion gene and a reporter gene, e.g., firefly luciferase, which expression is enhanced by the transcription factor. Cleavage of the fused substrate by γ-secretase will lead to expression of the reporter gene which can be monitored in appropriate assays. The γ-secretase activity can also be determined in cell-free in vitro assays where e.g., a cell lysate containing the γ-secretase complex is incubated with a suitable APP-derived substrate which is cleaved to the Abeta peptides. The amount of produced peptides can be determined with specific ELISA assays. Cell lines of neuronal origin secrete Abeta peptides which can be measured with the specific ELISA assay. Treatment with compounds which inhibit γ-secretase leads to a reduction of secreted Abeta thus providing a measure of inhibition.
# The in vitro assay of γ-secretase activity uses a HEK293 membrane fraction as a source of γ-secretase and a recombinant APP substrate. The latter consists of the C-terminal 100 amino acids of human APP fused to a 6×Histidin tail for purification which is expressed in E. coli in a regulatable expression vector, e.g. pEt15. This recombinant protein corresponds to the truncated APP fragment which results after […] of the extracellular domain and which constitutes the γ-secretase substrate. The assay principle is described in Li Y M et al, PNAS 97(11), 6138-6143 (2000). Hek293 cells are mechanically disrupted, and the microsomal fraction is isolated by differential centrifugation. The membranes are solubilized in detergent (0.25% CHAPSO) and incubated with the APP substrate. The Abeta peptides which are produced by γ-secretase cleavage of the substrate are detected by specific ELISA assays as described (Brockhaus M et al, Neuroreport 9(7), 1481-1486 (1998).
# The preferred compounds show a IC50<10 nM. In the list below are described some data to the γ-secretase inhibition: […]
row,Compound,IC50 [nM]
1,"COc1ccc(CN([C@@H]2CC(F)(F)CCNC2=O)S(=O)(=O)c2ccc(Cl)cc2)c(F)c1F [Example 4, 4-Chloro-N-(2,3-difluoro-4-methoxy-benzyl)-N-((R)-5,5-difluoro-2-oxo-azepan-3-yl)-benzenesulfonamide]",2
2,"O=C1NCCC(F)(F)C[C@H]1N(Cc1ccc(-c2ncn[nH]2)cc1F)S(=O)(=O)c1ccc(Cl)cc1 [Example 12, 4-Chloro-N-((R)-5,5-difluoro-2-oxo-azepan-3-yl)-N-[2-floro-4-(2H-[1,2,4]triazol-3-yl)-benzyl]-benzenesulfonamide]",6
3,"O=C(NC1CC1)c1ccc(CN([C@@H]2CCC(F)(F)CNC2=O)S(=O)(=O)c2ccc(Cl)cc2)cc1 [Example 13, 4-{[(4-Chloro-benzenesulfonyl)-((R)-6,6-difluoro-2-oxo-azepan-3-yl)-amino]-methyl}-N-cyclopropyl-benzamide]",297
4,"COc1ccc(CN([C@@H]2CC(F)(F)CCNC2=O)S(=O)(=O)CCC(F)(F)F)cn1 [Example 16, 3,3,3-Trifluoro-propane-1-sulfonic acid ((R)-5,5-difluoro-2-oxo-azepan-3-yl)-(6-methoxy-pyridin-3-ylmethyl)-amide]",150
5,"COc1ccc(CN([C@@H]2CC(F)(F)CCNC2=O)S(=O)(=O)c2ccc(Cl)s2)cn1 [Example 17, 5-Chloro-thiophene-2-sulfonic acid ((R)-5,5-difluoro-2-oxo-azepan-3-yl)-(6-methoxy-pyridin-3-ylmethyl)-amide]",110
